Among the data in US20160296499A1, “Spiroindoline Antiparasitic Derivatives” (ZOETIS SERVICES LLC, priority 2013, published 2016) are Ki and minimal effective concentration values, retold here.

Experiment [1] has as its target T1, bovine vesicular acetylcholine transporter (VAChT) (Bos taurus, UniProt E1BK36).
T1 sequence (E1BK36 1-524): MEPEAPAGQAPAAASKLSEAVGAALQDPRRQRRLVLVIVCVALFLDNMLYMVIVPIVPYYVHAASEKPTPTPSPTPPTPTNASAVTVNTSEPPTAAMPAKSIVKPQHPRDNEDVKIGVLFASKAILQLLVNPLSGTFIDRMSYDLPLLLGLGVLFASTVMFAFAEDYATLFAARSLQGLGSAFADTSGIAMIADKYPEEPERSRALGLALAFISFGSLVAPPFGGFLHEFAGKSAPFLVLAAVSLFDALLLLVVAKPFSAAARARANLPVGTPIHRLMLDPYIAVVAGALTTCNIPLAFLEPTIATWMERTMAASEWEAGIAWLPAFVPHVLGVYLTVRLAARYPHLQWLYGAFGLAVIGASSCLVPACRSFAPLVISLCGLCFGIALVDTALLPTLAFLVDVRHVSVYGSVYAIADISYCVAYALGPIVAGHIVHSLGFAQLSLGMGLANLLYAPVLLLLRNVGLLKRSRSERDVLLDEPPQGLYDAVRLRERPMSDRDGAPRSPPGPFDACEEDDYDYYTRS
As to the kind of experiment: Radioligand Binding Assay. The settings on record: Bovine binding Ki, CHO-K1 membranes with recombinant bovine VAChT, [3H]Compound X6 0.3 nM.
Experimental: To measure binding affinity, CHO-K1 cells recombinantly expressing the bovine VAChT was generated as a stable cell line and subsequently used to produce membrane preparations.
Radioligand binding assays were conducted in disposable polypropylene 96-well plates. VAChT competition assays were initiated by the addition of bovine recombinant membrane homogenate (50 μg/well) in assay buffer (50 mM Tris-HCl, 120 mM NaCl, 5 mM KCl, 1 mM MgCl, and 2 mM CaCl, pH 7.4) containing [^3H]Compound X6 (0.3 nM) with or without competing ligand. The assay was allowed to equilibrate for 120 minutes at room temperature, before being filtered onto GF/C unifilter plates pre-coated in 0.3% polyethylenimine (Perkin Elmer Life and Analytical Sciences, Boston, Mass.) with a Filtermate 96 harvester (PerkinElmer Life and Analytical Sciences). Filters were washed in ice-cold 50 mM Tris-HCl, pH 7.4 buffer and then counted for radioactivity in a TopCount microplate scintillation counter after addition of 50 μL Microscint 20 (PerkinElmer). Non-specific binding was measured in the presence of 10 μM Compound X6. Apparent dissociation constants (Ki values) from the competition experiments were calculated using an iterative nonlinear regression curve-fitting program (GraphPAD Prism 6.0 Software, San Diego, Calif.) and are reported in Table 2.

Another experiment concerns Haemonchus contortus L3. Briefly: Haemonchus contortus, Larvae Stage 3 (HcL3) In Vitro Assay. The conditions noted are these: Haemonchus contortus.
Experiment [2] concerns Dirofilaria immitis microfilariae. As to the kind of experiment: Dirofilaria immitis, Microfilariae (DiMF) In Vitro Assay. The conditions noted are these: Dirofilaria immitis.
[3] abbreviates: 96 h, read-out: HcL3 MEC, Minimal Effective Concentration whereby worm motility is inhibited by approximately 70%, 37° C., tested 0.001-100 μM.
The mark [4] stands for this setting: 72 h, read-out: Di MF, MEC, decrease in microfilariae motility by visual assessment, curve starting at 100 μM.
[5] abbreviates: 96 hours, 37° C., read-out: HcL3 MEC.

SMILES strings stand for the structures. pKi: −log10 of the molar value. Like-named read-outs stand apart in the source and are kept apart here.

As for `O=C(NCc1ccc([N+](=O)[O-])cc1)N1CC2(CCN(C/C=C/c3ccc(Cl)c(Cl)c3)CC2)c2c1ccc1scnc21` [Example 17, (E)-1-(3-(3,4-dichlorophenyl)allyl)-N-(4-nitrobenzyl)spiro[piperidine-4,8′-thiazolo[4,5-e]indole]-6′(7′H)-carboxamide], the pKi in experiment [1] was 4.94. Moreover, the results for the minimal effective concentration (in the experiment on Haemonchus contortus L3 (setting [3]); in experiment [2] (setting [4])) were 100 µM and 10 µM, respectively.
`O=C(NCc1ccc(O)cc1)N1CC2(CCN(C/C=C/c3ccc(Cl)c(Cl)c3)CC2)c2c1ccc1scnc21` [Example 18, (E)-1-(3-(3,4-dichlorophenyl)allyl)-N-(4-hydroxybenzyl)spiro[piperidine-4,8′-thiazolo[4,5-e]indole]-6′(7′H)-carboxamide]: the pKi in experiment [1] was 5.65. Besides, the minimal effective concentration with Haemonchus contortus L3 (setting [3]) is 100 µM; in experiment [2] (setting [4]), 43.5 µM.
The matching figures for `O=C(NCc1ccc(Cl)cc1)N1CC2(CCN(C/C=C/c3ccc(Cl)c(Cl)c3)CC2)c2c1ccc1scnc21` [Example 20, (E)-N-(4-chlorobenzyl)-1-(3-(3,4-dichlorophenyl)allyl)spiro[piperidine-4,8′-thiazolo[4,5-e]indole]-6′(7′H)-carboxamide]: 5.67, 100 µM and 13.5 µM.
Take `O=C(NCc1cnc(Cl)s1)N1CC2(CCN(C/C=C/c3ccc(Cl)c(Cl)c3)CC2)c2c1ccc1scnc21` [Example 21, (E)-N-((2-chlorothiazol-5-yl)methyl)-1-(3-(3,4-dichlorophenyl)allyl)spiro[piperidine-4,8′-thiazolo[4,5-e]indole]-6′(7′H)-carboxamide]: the pKi in experiment [1] is 6.98. For the same molecule, the minimal effective concentration was 69.1 µM in the experiment on Haemonchus contortus L3 (setting [5]) and 10 µM in experiment [2] (72 hours, read-out: Di MF).
With `O=C(NCc1cncs1)N1CC2(CCN(C/C=C/c3ccc(Cl)c(Cl)c3)CC2)c2c1ccc1scnc21` [Example 22, (E)-1-(3-(3,4-dichlorophenyl)allyl)-N-(thiazol-5-ylmethyl)spiro[piperidine-4,8′-thiazolo[4,5-e]indole]-6′(7′H)-carboxamide], the pKi in experiment [1] is 6.88. Further, the minimal effective concentration with Haemonchus contortus L3 (setting [3]) came to 100 µM; in experiment [2] (setting [4]) it was 10 µM.
On to `O=C(NCc1nccs1)N1CC2(CCN(C/C=C/c3ccc(Cl)c(Cl)c3)CC2)c2c1ccc1scnc21` [Example 23, (E)-1-(3-(3,4-dichlorophenyl)allyl)-N-(thiazol-2-ylmethyl)spiro[piperidine-4,8′-thiazolo[4,5-e]indole]-6′(7′H)-carboxamide], for which, in experiment [1], the pKi was 6.69. Also, the figures for the minimal effective concentration (in the experiment on Haemonchus contortus L3 (setting [3]); in experiment [2] (setting [4])) were 100 µM and 10 µM, respectively.
For the molecule `O=C(NCc1cscn1)N1CC2(CCN(C/C=C/c3ccc(Cl)c(Cl)c3)CC2)c2c1ccc1scnc21` [Example 24, (E)-1-(3-(3,4-dichlorophenyl)allyl)-N-(thiazol-4-ylmethyl)spiro[piperidine-4,8′-thiazolo[4,5-e]indole]-6′(7′H)-carboxamide], the pKi in experiment [1] was 5.96. The minimal effective concentration in the experiment with Haemonchus contortus L3 (setting [3]) is 100 µM; in experiment [2] (setting [4]), 33 µM.
`O=C(NCC1CCCCC1)N1CC2(CCN(C/C=C/c3ccc(Cl)c(Cl)c3)CC2)c2c1ccc1scnc21` [Example 25, (E)-N-(cyclohexylmethyl)-1-(3-(3,4-dichlorophenyl)allyl)spiro[piperidine-4,8′-thiazolo[4,5-e]indole]-6′(7′H)-carboxamide]: in experiment [1], the pKi is 5.12. In addition, the results for the minimal effective concentration (with Haemonchus contortus L3 (setting [3]); in experiment [2] (setting [4])) were 100 µM and 13.5 µM, respectively.
The corresponding values for `Cn1cc(CNC(=O)N2CC3(CCN(C/C=C/c4ccc(Cl)c(Cl)c4)CC3)c3c2ccc2scnc32)cn1` [Example 26, (E)-1-(3-(3,4-dichlorophenyl)allyl)-N-((1-methyl-1H-pyrazol-4-yl)methyl)spiro[piperidine-4,8′-thiazolo[4,5-e]indole]-6′(7′H)-carboxamide] are 7.56, 10 µM and 10 µM.
In the case of `Cn1nccc1CNC(=O)N1CC2(CCN(C/C=C/c3ccc(Cl)c(Cl)c3)CC2)c2c1ccc1scnc21` [Example 27, (E)-1-(3-(3,4-dichlorophenyl)allyl)-N-((1-methyl-1H-pyrazol-5-yl)methyl)spiro[piperidine-4,8′-thiazolo[4,5-e]indole]-6′(7′H)-carboxamide], in experiment [1], the pKi is 7.65. The minimal effective concentration in the experiment on Haemonchus contortus L3 (setting [5]) stood at 10 µM; in experiment [2] (72 hours, read-out: Di MF), 10 µM.
Regarding `Cn1ccc(CNC(=O)N2CC3(CCN(C/C=C/c4ccc(Cl)c(Cl)c4)CC3)c3c2ccc2scnc32)n1` [Example 28, (E)-1-(3-(3,4-dichlorophenyl)allyl)-N-((1-methyl-1H-pyrazol-3-yl)methyl)spiro[piperidine-4,8′-thiazolo[4,5-e]indole]-6′(7′H)-carboxamide], the pKi in experiment [1] was 6.29. The figures for the minimal effective concentration (in the experiment on Haemonchus contortus L3 (setting [3]); in experiment [2] (setting [4])) were 100 µM and 10 µM, respectively.
The corresponding values for `O=C(NCc1cocn1)N1CC2(CCN(C/C=C/c3ccc(Cl)c(Cl)c3)CC2)c2c1ccc1scnc21` [Example 29, (E)-1-(3-(3,4-dichlorophenyl)allyl)-N-(oxazol-4-ylmethyl)spiro[piperidine-4,8′-thiazolo[4,5-e]indole]-6′(7′H)-carboxamide] are 6.44, 100 µM and 10 µM.
The matching figures for `CC(C)CNC(=O)N1CC2(CCN(C/C=C/c3ccc(Cl)c(Cl)c3)CC2)c2c1ccc1scnc21` [Example 31, (E)-1-(3-(3,4-dichlorophenyl)allyl)-N-isobutylspiro[piperidine-4,8′-thiazolo[4,5-e]indole]-6′(7′H)-carboxamide]: 6.07, 100 µM and 3.3 µM.
The matching figures for `O=C(NCC1CC1)N1CC2(CCN(C/C=C/c3ccc(Cl)c(Cl)c3)CC2)c2c1ccc1scnc21` [Example 32, (E)-N-(cyclopropylmethyl)-1-(3-(3,4-dichlorophenyl)allyl)spiro[piperidine-4,8′-thiazolo[4,5-e]indole]-6′(7′H)-carboxamide]: 6.87, 100 µM and 3.3 µM.
For `O=C(NCC1CCCC1)N1CC2(CCN(C/C=C/c3ccc(Cl)c(Cl)c3)CC2)c2c1ccc1scnc21` [Example 33, (E)-N-(cyclopentylmethyl)-1-(3-(3,4-dichlorophenyl)allyl)spiro[piperidine-4,8′-thiazolo[4,5-e]indole]-6′(7′H)-carboxamide], in experiment [1], the pKi is 5.78. The minimal effective concentration with Haemonchus contortus L3 (setting [3]) worked out at 100 µM; in experiment [2] (setting [4]) it was 10 µM.
The matching figures for `O=C(NCc1ccnnc1)N1CC2(CCN(C/C=C/c3ccc(Cl)c(Cl)c3)CC2)c2c1ccc1scnc21` [Example 37, (E)-1-(3-(3,4-dichlorophenyl)allyl)-N-(pyridazin-4-ylmethyl)spiro[piperidine-4,8′-thiazolo[4,5-e]indole]-6′(7′H)-carboxamide]: 5.92, 100 µM and 6.9 µM.
The corresponding values for `O=C(NCc1ccnc(Cl)c1)N1CC2(CCN(C/C=C/c3ccc(F)cc3)CC2)c2c1ccc1scnc21` [Example 38, (E)-N-((2-chloropyridin-4-yl)methyl)-1-(3-(4-fluorophenyl)allyl)spiro[piperidine-4,8′-thiazolo[4,5-e]indole]-6′(7′H)-carboxamide] are 7.34, 10 µM and 3.3 µM.
On to `O=C(NCc1ccnc(Cl)c1)N1CC2(CCN(C/C=C/c3ccc(Cl)cc3)CC2)c2c1ccc1scnc21` [Example 39, (E)-1-(3-(4-chlorophenyl)allyl)-N-((2-chloropyridin-4-yl)methyl)spiro[piperidine-4,8′-thiazolo[4,5-e]indole]-6′(7′H)-carboxamide], for which, in experiment [1], the pKi was 7.05. In addition, the results for the minimal effective concentration (in the experiment on Haemonchus contortus L3 (setting [3]); in experiment [2] (setting [4])) were 6.9 µM and 3.3 µM, respectively.
The corresponding values for `O=C(NCc1ccnc(Cl)c1)N1CC2(CCN(C/C=C/c3ccc(Cl)c(Cl)c3)CC2)c2c1ccc1scnc21` [Example 40, (E)-N-((2-chloropyridin-4-yl)methyl)-1-(3-(3,4-dichlorophenyl)allyl)spiro[piperidine-4,8′-thiazolo[4,5-e]indole]-6′(7′H)-carboxamide] are 6.96, 4.8 µM and 5.7 µM.
The matching figures for `O=C(NCc1ccnc(Cl)c1)N1CC2(CCN(C/C=C/c3ccc(C(F)(F)F)cn3)CC2)c2c1ccc1scnc21` [Example 41, (E)-N-((2-chloropyridin-4-yl)methyl)-1-(3-(5-(trifluoromethyl)pyridin-2-yl)allyl)spiro[piperidine-4,8′-thiazolo[4,5-e]indole]-6′(7′H)-carboxamide]: 6.37, more than 100 µM and 33 µM.
